Source: paper PMC5187916, “Discovery of a New Class of Cathepsin K Inhibitors in Rhizoma Drynariae as Potential Candidates for the Treatment of Osteoporosis” (International Journal of Molecular Sciences, 2016)

Columns and labels:
Cathepsin K [1] = target: T1, Cathepsin K (Homo sapiens, UniProt P43235); assay: fluorescence enzyme assay with recombinant human Ctsk, LR-AFC substrate; format: biochemical
T1 construct: gene CTSK
T1 sequence (P43235 115-329): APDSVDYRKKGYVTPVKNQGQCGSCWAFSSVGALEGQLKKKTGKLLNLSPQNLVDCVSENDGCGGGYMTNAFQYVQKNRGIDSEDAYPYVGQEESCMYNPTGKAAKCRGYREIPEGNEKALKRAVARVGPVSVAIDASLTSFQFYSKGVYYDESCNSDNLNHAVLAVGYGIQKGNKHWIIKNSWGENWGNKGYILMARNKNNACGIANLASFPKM

Cathepsin K [2] = target: T1, Cathepsin K; assay: fluorescence enzyme assay with recombinant human Ctsk, LR-AFC substrate (kit positive control); format: biochemical

For `C=C(C)C(CC=C(C)C)Cc1c(O)cc2c(c1O)C(=O)CC(c1ccc(O)cc1O)O2` (stereo not drawn) [KF, Kushennol F], the IC50 (Cathepsin K [1]) was 8.79 µM.
With `C=C(C)[C@H](CC=C(C)C)Cc1c(O)cc(O)c2c1O[C@H](c1ccc(O)cc1O)CC2=O` [SG, Sophoraflavanone G] the IC50 (Cathepsin K [1]) was 27.2 µM.
Work on FF-FMK yielded an IC50 (Cathepsin K [2]) of 0.047 µM.
